Measured values published in PMC3790851, “Improved Mass Spectrometry Assay For Plasma Hepcidin: Detection and Characterization of a Novel Hepcidin Isoform” (PLoS ONE, 2013).
Bridge positions count the residues as written; N and C are the ends. Peptide text beside a SMILES is read from it.

Assays:
in vitro [1] = settings: human
Description: (§1) Samples were used for measurement of hepcidin between 4–7 hrs after blood drawing and/or pooled and/or stored in aliquots at various temperatures for prolonged periods of time.
(§2) Fresh samples were measured within 2–4 hrs hours after blood drawing and stored in aliquots at various temperatures for prolonged incubation.
(§3) Mass-to-charge (m/z) spectra were generated by using MALDI-TOF MS (Microflex LT, Bruker Daltonics). Spectra were analyzed by using Bruker Daltonics FlexAnalysis software. […] Total hepcidin concentration was defined as the sum of hepcidin-25, -24, -22, and -20 concentrations.
(§4) Using the novel heavy hepcidin-25 internal standard, we assessed changes in hepcidin-25 and the smaller isoforms in various samples containing various anticoagulants ex vivo at room temperature (RT), 4°C, −20°C and −80°C. More specifically, changes in hepcidin concentrations relative to those found in freshly collected samples were determined i) at storage at RT and 4°C on day 0 (fresh samples), 1 (14–22 hrs), 2, 3, and 7 days after sampling/storage, ii) at −20°C after 1 week, and after 1, 4 and 6 months of storage and iii) at −80°C at after 6 months of storage.

[2] = Stability of hepcidin in plasma/serum at room temperature (WCX-TOF MS); format: in vitro ADME, human; settings: average
Description: Spectra were analyzed by using Bruker Daltonics FlexAnalysis software.
To assess the stability of hepcidin in serum and plasma matrices, we kept samples from intensive care patients (n = 20) and healthy controls (n = 5) at room temperature for 0–7 days followed by WCX-TOF MS analysis using the hepcidin-25^+40 internal standard. […] For the samples at day 1 and day 7, the mean decrease in hepcidin-25 for the 5 controls and 20 intensive care patients was 90% (CV, 8% ) and 55% (CV, 23%), respectively (Table 3).

in vitro [3] = settings: human; remark: listed apart in the source
Description: as §1, §2, §3, §4

[4] = biological target: T1, green fluorescent protein (GFP)-fused human ferroportin (Homo sapiens, UniProt Q9NP59); test: Hepcidin bioactivity assay: GFP-ferroportin internalization and degradation; format: cell-based
T1 construct: expressed in transfected cells
T1 sequence (Q9NP59 1-571): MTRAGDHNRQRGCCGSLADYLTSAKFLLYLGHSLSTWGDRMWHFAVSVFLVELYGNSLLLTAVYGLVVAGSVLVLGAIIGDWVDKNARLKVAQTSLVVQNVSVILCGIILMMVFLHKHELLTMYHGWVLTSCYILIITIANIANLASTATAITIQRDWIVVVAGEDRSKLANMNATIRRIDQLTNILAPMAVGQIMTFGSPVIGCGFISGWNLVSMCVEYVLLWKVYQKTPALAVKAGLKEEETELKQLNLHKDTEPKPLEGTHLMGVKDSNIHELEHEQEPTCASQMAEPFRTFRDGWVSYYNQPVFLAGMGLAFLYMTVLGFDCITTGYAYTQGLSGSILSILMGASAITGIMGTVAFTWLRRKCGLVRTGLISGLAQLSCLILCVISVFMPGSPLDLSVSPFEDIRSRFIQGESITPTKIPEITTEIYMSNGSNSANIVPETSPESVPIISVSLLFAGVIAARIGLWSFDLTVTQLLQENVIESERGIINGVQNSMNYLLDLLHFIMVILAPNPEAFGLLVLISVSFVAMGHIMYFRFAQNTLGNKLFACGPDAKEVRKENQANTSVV
From the text: A stable cell line engineered for inducible expression of green fluorescent protein (GFP)-fused human ferroportin was used as a test system to determine hepcidin-24 activity relative to hepcidin-25, 22 and 20. In this cell system, ferroportin internalization and degradation provided a means to quantify hepcidin activity. The assay was implemented basically as described by Nemeth et al., [33] except that fluorescence was quantified in triplicate wells on a microplate reader. To determine EC50 values for hepcidin-25 and hepcidin-24, a curve was fitted by nonlinear regression with a four parameter logistic equation using Prism v5 (GraphPad).
Figure 5 Hepcidin-mediated ferroportin internalization. Different concentrations of synthetic hepcidin-25, -24, -22 and -20 (indicated in nM on the horizontal axis) were added to the growth medium of a stable cell line that expresses green fluorescent protein-fused ferroportin (GFP-FPN). Hepcidin-mediated GFP-FPN internalization and degradation was quantified by measuring cellular fluorescence levels in arbitrary units.

[5] = average, % of fresh; 10 IC patients and 5 controls; CV (Hep-25/-24/-22/-20) 11/12/11/28; n = 15/8/6/9; hepcidin-20 unreliable (additional peak)
Description: as §1, §2, §3, §4

[6] = Effect of solvent of hepcidin-25^+40 on loss of peptide and hepcidin-25 value assignment; format: physicochemical
Description: Heavy hepcidin-25^+40 (hepcidin-25^+40 Da; DTHF(^13C9,^15N)P(^13C5,^15N)I(^13C6,^15N)CI(^13C6,^15N) F(^13C9,^15N)CCG(^15N)CCHRSKCGMCCKT disulfide bridged) was obtained from Peptides International (Table 1). Note that due to an isotope content of 98% the actual mass is 1 Da less than the theoretical mass of this peptide. Freeze dried hepcidin-25^+40 was dissolved in H2O in accordance with the manual. An 0.1 nmol/L solution of hepcidin-25^+40 was aliquoted in 12 µL volumes in 200 µL polypropylene tubes and stored at −80°C until use.
As quantification of native hepcidin in a sample is related to the known concentration of the spiked internal standard, the absolute levels of measured hepcidin are highly dependent on the value assignment of the used internal standard. One determining factor concerns proper dissolvent of the lyophilized peptide and whether or not a substantial amount of the internal standard is lost by aggregation or sticking to laboratory plastics during its preparation. Therefore, we compared the effects of three different solvents to prepare hepcidin-25^+40 stock solutions on the measured hepcidin-25 concentration of a series of spiked blank serum samples to which known hepcidin-25 concentrations were added. […] This finding implicates that use of 5% phosphoric acid leads to loss of about 50% of the peptide, while this seems to be the case for about 15% of the peptide when water is used. […] Therefore, 20% acetonitrile was implemented as solvent for the internal standard in our standard operating procedure, which was used throughout the remainder of this study.
Figure 1 Effect on the solvent of hepcidin-25^+40 on hepcidin-25 linearity and value assignment. […] Linearity of measured hepcidin-25 was determined by the formulas: Y = 1.822X+0.097 (5% phosphoric acid); Y = 1.119X+0.494 (water); Y = 0.964X+0.069 (20% acn).

[7] = serum, healthy controls; cited from earlier work
From the text: We observed no differences between the various anticoagulants used. We observed, however, a small non significant decrease of hepcidin-25 upon freezing (e.g. for heparin samples at 7 days: total intensive care and control (n = 15): 95% (CV 8%) relative to fresh samples, Table S3). […] However, it should be noted that the reproducibility of the measurements of the smaller isoforms at low concentrations is low, especially the measurements of hepcidin-20 in EDTA plasma samples (Table 2, Table S3). Thus, hepcidin measurements by WCX-TOF MS are no ...

[8] = parameters: method as in PMID 22222553; settings: serum, 12 healthy controls; cited from earlier work
[9] = at least; cited from earlier work
Description: We conclude that hepcidin-25 results are not changed during 2 years of storage at −80°C, except for a possible small decrease upon freezing. However, after 2 years storage at −80°C, hepcidin results become less precise and individual measurements might become less reliable. Average results for a population may not be affected, but existing differences in hepcidin levels between groups, or correlations of hepcidin with other parameters might be more difficult to assess.
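Throughout, for Hepcidin level after one week at -20°C, EDTA plasma: hepcidin in stored plasma or serum quantified by MALDI-TOF MS against a heavy hepcidin-25 internal standard, expressed relative to concentrations in freshly collected samples.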

CC[C@H](C)[C@@H]1NC(=O)[C@@H](NC(=O)[C@@H](NC(=O)[C@@H]2CCCN2C(=O)[C@H](Cc2ccccc2)NC(=O)[C@H](Cc2c[nH]cn2)NC(=O)[C@@H](N)[C@@H](C)O)[C@@H](C)CC)CSSC[C@@H](C(=O)N[C@@H](CCCCN)C(=O)N[C@H](C(=O)O)[C@@H](C)O)NC(=O)[C@@H]2CSSC[C@H](NC(=O)[C@H](Cc3ccccc3)NC1=O)C(=O)N[C@H]1CSSC[C@H](NC(=O)[C@H](CCCCN)NC(=O)[C@H](CO)NC(=O)[C@H](CCCNC(=N)N)NC(=O)[C@H](Cc3c[nH]cn3)NC(=O)[C@@H]3CSSC[C@H](NC(=O)CNC1=O)C(=O)N3)C(=O)NCC(=O)N[C@@H](CCSC)C(=O)N2 [Hepcidin-24] (H-THFPICIFCCGCCHRSKCGMCCKT-OH; disulfide 6-22, 9-21, 10-18, 12-13)
remaining at 168 h (in vitro [1]; EDTA plasma): 113% | remaining at 168 h (in vitro [1]; heparin plasma): 106% | Hepcidin level after one week at RT ([2]; % of fresh sample, 7 days, human heparin plasma, 19 IC patients + 5 controls, results <1.0 nM removed, WCX-TOF MS, hepcidin-25^+40 internal standard, CV (Hep-25/-24/-22/-20/Total) 23/29/29/38/17, n = 24/15/13/18/11): 104% | Hepcidin level after one day at RT ([2]; % of fresh sample, human heparin plasma, 19 IC patients + 5 controls, results <1.0 nM removed, WCX-TOF MS, hepcidin-25^+40 internal standard, CV (Hep-25/-24/-22/-20/Total) 8/21/14/25/5, n = 24/15/13/18/11): 120% | Hepcidin level after one week at RT, with protease inhibitors ([2]; % of fresh, 7 days, heparin plasma, 10 IC patients, Complete Mini (Roche), CV (Hep-25/-24/-22/-20) 25/35/9/25, n = 10/8/7/8): 133% | Hepcidin level after one week at RT, without protease inhibitors ([2]; % of fresh, 7 days, heparin plasma, 10 IC patients, results <1 nM excluded, CV (Hep-25/-24/-22/-20) 30/31/23/41, n = 10/8/7/8): 116% | Hepcidin level after one day at RT, with protease inhibitors ([2]; % of fresh, heparin plasma, 10 IC patients, Complete Mini (Roche), 1 tablet in 200 µL PBS, 20 µL per 1 ml plasma, CV (Hep-25/-24/-22/-20) 8/30/4/14, n = 10/8/7/8): 122% | Hepcidin level after one day at RT, without protease inhibitors ([2]; % of fresh, heparin plasma, 10 IC patients, results <1 nM excluded, CV (Hep-25/-24/-22/-20) 13/20/11/11, n = 10/8/7/8): 128% | remaining at 672 h (in vitro [3]; EDTA plasma): 91% | remaining at 672 h (in vitro [3]; heparin plasma): 114% | EC50 [4]: 192 nM | activity relative to hepcidin-25 (fold lower) ([4]; relative to hepcidin-25): 10 fold | potency as inducer of ferroportin degradation ([4]; synthetic peptides, compared with hepcidin-25): significantly less potent inducer of ferroportin degradation than hepcidin-25 | Hepcidin level after one week at -20°C, EDTA plasma [5]: 96%

DTHF(^13C9,^15N)P(^13C5,^15N)I(^13C6,^15N)CI(^13C6,^15N) F(^13C9,^15N)CCG(^15N)CCHRSKCGMCCKT disulfide bridged (disulfide) [Hepcidin-25^+40, novel custom made heavy hepcidin-25 isotope, disulfide bridged, internal standard]
loss of peptide on dissolution in 5% phosphoric acid ([6]; inferred from false high measured hepcidin-25 in spiked blank serum): about 50% | loss of peptide on dissolution in water ([6]; inferred from measured hepcidin-25 in spiked blank serum): about 15% | measured to nominal hepcidin-25 ratio, internal standard in 20% acetonitril ([6]; spiked blank serum): near 1∶1 ratio

hepcidin: hepcidin as measured in plasma or serum, isoform not specified at the place
stability at -20°C [7]: ≥ 42 days | stability at 4°C [8]: 6 days | stability at -80°C [9]: 6–8 months
